Measured values reported in ChEMBL document CHEMBL3414547, “Recent advances of chroman-4-one derivatives: synthetic approaches and bioactivities” (Eur J Med Chem, 2015).
In brackets after ≈: the same amount, converted by molar mass. Values belong to the molecule of their own block, whether it stands above or below them.

Columns and labels:
MDA-MB-231 [1] = test: Cytotoxicity against human MDA-MB-231 cells by MTT assay; assay type: functional, cell-based
KB = test: Cytotoxicity against human KB cells by MTT assay; assay type: functional, cell-based
SK-N-MC [2] = test: Cytotoxicity against human SK-N-MC cells by MTT assay; assay type: functional, cell-based
Aspergillus niger [3] = test: Antifungal activity against Aspergillus niger PTCC 5012 after 72 hrs by agar dilution method; assay type: functional; conditions: PTCC 5012, 72 h
Candida albicans [4] = test: Antifungal activity against Candida albicans PTCC 5027 after 24 to 48 hrs by agar dilution method; assay type: functional
Nannizzia gypsea [5] = test: Antifungal activity against Microsporum gypseum PTCC 5070 after 168 hrs by agar dilution method; assay type: functional; conditions: PTCC 5070, 168 h
Saccharomyces cerevisiae [6] = test: Antifungal activity against Saccharomyces cerevisiae PTCC 5177 after 24 to 48 hrs by agar dilution method; assay type: functional
Nannizzia gypsea [7] = test: Antifungal activity against Microsporum gypseum; assay type: functional
Staphylococcus aureus [8] = test: Antibacterial activity against methicillin-resistant Staphylococcus aureus 252; assay type: functional
Saccharomyces cerevisiae [9] = test: Antifungal activity against Saccharomyces cerevisiae; assay type: functional
Candida albicans [10] = test: Antifungal activity against Candida albicans; assay type: functional
Saccharomyces cerevisiae [11] = test: Ratio of fluconazole MIC to compound MIC for Saccharomyces cerevisiae; assay type: functional
Candida albicans [12] = test: Ratio of fluconazole MIC to compound MIC for Candida albicans; assay type: functional
Acetylcholinesterase = Acetylcholinesterase (Homo sapiens, UniProt P22303); test: Inhibition of AChE (unknown origin)
Chain of Acetylcholinesterase (P22303 whole entry): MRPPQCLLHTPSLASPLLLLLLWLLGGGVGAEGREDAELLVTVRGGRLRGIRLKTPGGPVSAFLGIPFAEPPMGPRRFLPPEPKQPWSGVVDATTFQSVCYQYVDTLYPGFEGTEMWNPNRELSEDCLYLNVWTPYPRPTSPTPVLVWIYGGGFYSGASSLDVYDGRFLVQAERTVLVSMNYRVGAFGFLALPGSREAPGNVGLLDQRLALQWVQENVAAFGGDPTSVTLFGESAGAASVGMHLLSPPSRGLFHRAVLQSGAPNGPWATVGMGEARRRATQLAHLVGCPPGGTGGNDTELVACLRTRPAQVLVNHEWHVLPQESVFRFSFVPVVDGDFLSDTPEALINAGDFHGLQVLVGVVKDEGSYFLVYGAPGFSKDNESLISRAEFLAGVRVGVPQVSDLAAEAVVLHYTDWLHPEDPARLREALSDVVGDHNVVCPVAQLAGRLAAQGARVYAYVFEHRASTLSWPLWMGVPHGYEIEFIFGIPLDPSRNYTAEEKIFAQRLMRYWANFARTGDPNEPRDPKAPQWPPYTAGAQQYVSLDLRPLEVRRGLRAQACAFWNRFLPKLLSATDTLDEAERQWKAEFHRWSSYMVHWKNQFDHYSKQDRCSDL

Mycolicibacterium aurum = test: Antimycobacterial activity against Mycobacterium aurum; assay type: functional
Mycolicibacterium phlei = test: Antimycobacterial activity against Mycobacterium phlei; assay type: functional
[13] = test system: Mycolicibacterium fortuitum; test: Antimycobacterial activity against Mycobacterium fortuitum; assay type: functional
[14] = test system: Mycolicibacterium smegmatis; test: Antimycobacterial activity against Mycobacterium smegmatis; assay type: functional
HUVEC = test: Cytotoxicity against HUVEC by MTT assay; assay type: functional, cell-based; conditions: Homo sapiens
SK-N-MC [15] = test: Cytotoxicity against human SK-N-MC cells after 24 hrs by MTT assay; assay type: functional, cell-based
MDA-MB-231 [16] = test: Cytotoxicity against human MDA-MB-231 cells after 24 hrs by MTT assay; assay type: functional, cell-based; conditions: MDA-MB-231, 24 h
K562 = test: Cytotoxicity against human K562 cells after 24 hrs by MTT assay; assay type: functional, cell-based; conditions: K562, 24 h
Staphylococcus aureus [17] = test: Antibacterial activity against Staphylococcus aureus; assay type: functional
T47D = test: Cytotoxicity against human T47D cells after 72 hrs by MTT assay; assay type: functional, cell-based
MDA-MB-231 [18] = test: Cytotoxicity against human MDA-MB-231 cells after 72 hrs by MTT assay; assay type: functional, cell-based; conditions: MDA-MB-231, 72 h
MCF7 = test: Cytotoxicity against human MCF7 cells after 72 hrs by MTT assay; assay type: functional, cell-based; conditions: MCF7, 72 h
Aspergillus niger [19] = test: Antifungal activity against Aspergillus niger; assay type: functional
Aspergillus niger [20] = test: Ratio of fluconazole MIC to compound MIC for Aspergillus niger; assay type: functional
Nannizzia gypsea [21] = test: Ratio of fluconazole MIC to compound MIC for Microsporum gypseum; assay type: functional

Compound: COc1ccc2c(c1)OC/C(=C\c1cc(Cl)c(OC)c(OC)c1)C2=O
- IC50 (MDA-MB-231 [1]): 7.56 µg/mL (≈ 21 µM)
- IC50 (KB): 7.56 µg/mL (≈ 21 µM)
- IC50 (SK-N-MC [2]): 7.56 µg/mL (≈ 21 µM)

- MIC (Aspergillus niger [3]): 8 µg/mL (≈ 25.1 µM)
- MIC (Candida albicans [4]): 8 µg/mL (≈ 25.1 µM)
- MIC (Nannizzia gypsea [5]): 8 µg/mL (≈ 25.1 µM)
- MIC (Saccharomyces cerevisiae [6]): 8 µg/mL (≈ 25.1 µM)
Compound: CC1Oc2ccccc2/C(=N/Nc2ccccc2)C1n1ccnc1 (stereo not drawn)

- MIC (Nannizzia gypsea [7]): 2 µg/mL
Compound: O=[N+]([O-])O.c1ccc(CO/N=C2/c3ccccc3OCC2n2ccnc2)cc1 (stereo not drawn)

Compound: C=C(C)C(C)c1cc(C2CC(=O)c3c(O)cc(O)cc3O2)cc(OC)c1O (stereo not drawn)
- MIC (Staphylococcus aureus [8]): 16 µg/mL (≈ 43.2 µM)

- MIC (Saccharomyces cerevisiae [9]): 0.5 µg/mL
- MIC (Candida albicans [10]): 0.25 µg/mL
- MIC (Nannizzia gypsea [7]): 1 µg/mL
Compound: C[C@@H]1Oc2cc(Cl)ccc2/C(=N\OCc2ccccc2)[C@H]1n1ccnc1.O=[N+]([O-])O
- Ratio (Saccharomyces cerevisiae [11]): 32
- Ratio (Candida albicans [12]): 32

Compound: Nc1oc2ccccc2c(=O)c1/C=C1\COc2ccccc2C1=O
- IC50 (Acetylcholinesterase): 0.27 µM

- MIC (Mycolicibacterium aurum): 32 µg/mL (≈ 102 µM)
- MIC (Mycolicibacterium phlei): 16 µg/mL (≈ 51.2 µM)
- MIC [13]: 128 µg/mL (≈ 410 µM)
- MIC [14]: 256 µg/mL (≈ 820 µM)
Compound: COc1ccc(CC2COc3c(ccc4c3OCO4)C2=O)cc1 (stereo not drawn)

Compound: COc1ccccc1/C=C1\COc2ccccc2C1=O
- IC50 (HUVEC): 19 µM

Compound: COc1cc(/C=C2\COc3cc(O)ccc3C2=O)cc(Br)c1O
- IC50 (SK-N-MC [15]): ≤ 3.86 µg/mL
- IC50 (MDA-MB-231 [16]): ≤ 3.86 µg/mL
- IC50 (K562): ≤ 3.86 µg/mL

- MIC (Staphylococcus aureus [17]): 4 µg/mL (≈ 8.54 µM)
Compound: COc1cc(C2CC(=O)c3c(cc(O)c(C/C=C(\C)CCC=C(C)C)c3O)O2)cc(OC)c1O (stereo not drawn)

- MIC (Saccharomyces cerevisiae [9]): 4 µg/mL (≈ 9.44 µM)
Compound: Clc1ccc(CO/N=C2\c3ccc(Cl)cc3OCC2n2cncn2)c(Cl)c1 (stereo not drawn)

Compound: O=C1/C(=C/c2ccccc2)COc2cc3c(cc21)OCO3
- IC50 (T47D): ≤ 9.3 µg/mL
- IC50 (MDA-MB-231 [18]): ≤ 9.3 µg/mL
- IC50 (MCF7): ≤ 9.3 µg/mL

- MIC (Nannizzia gypsea [7]): 2 µg/mL
Compound: O=[N+]([O-])O.c1ccc(CO/N=C2\c3ccccc3OCC2n2ccnc2)cc1 (stereo not drawn)

- MIC (Candida albicans [10]): ≤ 1 µg/mL
- MIC (Aspergillus niger [19]): ≤ 1 µg/mL
Compound: Clc1ccc(CO/N=C2\c3ccccc3OCC2n2ccnc2)cc1Cl.O=[N+]([O-])O (stereo not drawn)

- MIC (Nannizzia gypsea [7]): 1 µg/mL
- MIC (Aspergillus niger [19]): 1 µg/mL
Compound: Clc1ccc(CO/N=C2\c3ccccc3OCC2n2cncn2)cc1Cl.O=[N+]([O-])O (stereo not drawn)
- Ratio (Aspergillus niger [20]): 16
- Ratio (Nannizzia gypsea [21]): 16

Compound: C=C(C)C(C)c1cc(C2CC(=O)c3c(O)cc(O)cc3O2)c(OC)cc1O (stereo not drawn)
- MIC (Staphylococcus aureus [8]): 16 µg/mL (≈ 43.2 µM)

- MIC (Nannizzia gypsea [7]): 1 µg/mL
Compound: C[C@@H]1Oc2ccccc2/C(=N\OCc2ccc(F)cc2)[C@H]1n1ccnc1.O=[N+]([O-])O

- MIC (Staphylococcus aureus [17]): 16 µg/mL (≈ 37.7 µM)
Compound: CC(C)=CCC/C(C)=C/Cc1c(C2CC(=O)c3c(O)cc(O)cc3O2)ccc(O)c1O (stereo not drawn)
